Patent publication US7101878B1 (Agouron Pharmaceuticals, Inc., priority 1998, dated 2006)
Entries after “also recorded” stand apart in the source; their conditions may differ. Where a SMILES comes first, the peptide text is derived from it. [ ]: non-standard residue; d: D form. The star is where a group is joined. dPhe(4-Cl) = N[C@H](Cc1ccc(Cl)cc1)C(=O)O; d2Nal = N[C@H](Cc1ccc2ccccc2c1)C(=O)O; Lys(iPr) = CC(C)NCCCC[C@H](N)C(=O)O; d3Pal = N[C@H](Cc1cccnc1)C(=O)O; Nicotinoyl = O=C(c1cccnc1)*

Key:
[1] = target: T1, rat GnRH receptor (Rattus norvegicus, UniProt P30969); assay: Microphysiometry, extracellular acidification rate, GGH3 cells; type: cell-based
T1 sequence (P30969 1-327): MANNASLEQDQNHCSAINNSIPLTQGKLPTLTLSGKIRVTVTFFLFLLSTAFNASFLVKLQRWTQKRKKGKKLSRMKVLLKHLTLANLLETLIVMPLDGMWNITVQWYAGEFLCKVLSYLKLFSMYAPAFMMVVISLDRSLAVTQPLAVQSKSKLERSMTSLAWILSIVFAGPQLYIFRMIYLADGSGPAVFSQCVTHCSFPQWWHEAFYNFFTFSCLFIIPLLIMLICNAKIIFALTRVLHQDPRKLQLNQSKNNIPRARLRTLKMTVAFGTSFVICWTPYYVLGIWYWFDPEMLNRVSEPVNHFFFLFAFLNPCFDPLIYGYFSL
Method: These cells have been extensively characterized previously (Kaiser et al., 1997). These cells were grown in low glucose Dulbecco's modified Eagle's medium (DMEM) containing: 100U/mL penicillin/streptomycin, 0.6 g/L G418 and 10% beat-inactivated fetal bovine serum
This cell line was provided by Dr. Stuart Sealfon, Mount Sinai Medical School New York, N.Y. These cells were grown in DMEM supplemented with 0.2 g/L G418 100 U/ml penicillin/streptomycin and 10% FBS. Both GGH3 and hGnRH-R/293 cells were utilized for both for both total inositol phosphate measurement and for microphysiometry assessment of compound efficacy.
The Cytosensor®Microphysiometer (Molecular Devices, Sunnyvale, Calif.) is a real-time, noninvasive, nonradioactive semiconductor-based system for monitoring the cellular responses to various stimuli. It is based on a pH-sensitive silicon sensor, the light-addressable potentiometric sensor which forms part of a microvolume flow chamber in which cultured cells are immobilized (Pitchford et al., 1995; Parce et al., 1989; Owicki, et al. 1994).
GGH3 cells were seeded in low-buffered minimal essential media (MEM, Sigma) containing 25 mM NaCl and 0.1% BSA at a density of 500,000 cells/capsule onto the polycarbonate membrane (3 μm porosity) of cell capsule cups (Molecular Devices, Sunnyvale, Calif.). Capsule cups were transferred to sensor chambers where cells were held in close apposition to a silicon sensor within a sensor chamber, which measures small changes in pH in the microvolume of the sensor chamber. Low-buffered medium was pumped continuously across the cells at a rate of approximately 100 μl/min from one of two fluid reservoirs. A selection valve determined which reservoir from which fluid was perifused onto the cells.
The Cytosensor®Microphysiometer generates a voltage signal, which is a linear function of pH, every second. In order to measure acidification rates, flow to the sensor chamber containing the cells was periodically interrupted, allowing for excreted acidic metabolites to build up in the extracellular fluid of the cells. In these experiments, cells were maintained at 37° C. on a two minute flow cycle with cells being perfused with media for 80 seconds followed by 40 seconds in which the flow of media was stopped. During this 40 second interval, acidification rates were measured for a 30 sec interval. In this fashion, a single acidification rate was calculated every two min. The Cytosensor®Microphysiometer device contains eight such sensor units, allowing for eight simultaneous experiments to be performed. Each unit was individually programmed utilizing a computer linked to the system.
GGH3 cells were initially equilibrated in the low-buffered MEM media for a period of 30-60 min in which basal acidification rates (measured as μV/sec), in the absence of any stimuli, were monitored. When the basal rate of acidification changed by less than ten percent over a period of twenty minutes, experiments were initiated. Time course experiments were performed to determine the optimal time for agonist exposure prior to acidification rate measurement and the duration of exposure needed to obtain peak acidification responses to various agonists. From these time course experiments, it was determined that cells should be exposed to GnRH peptide agonists at least one minute prior to collection of acidification rate data. Peak acidification rates usually occurred in the first two-minute exposure cycle. In order to capture the peak response to GnRH, cells were exposed to the agonist for a total of four minutes. […] All compounds were tested in a final concentration of 1% DMSO in low-buffered MEM media described above.

[2] = Metabolism rate, pmol/min/mg at 1 μM, rat male; type: in vitro ADME; settings: 1 μM compound
[3] = test system: LH levels in castrated rats; assay: Castrated male rat model, LH suppression; type: in vivo
From the text: Experimental Protocol: Male Sprague-Dawley (225-250 g) rats were castrated and allowed 10 days postoperative recovery. Ten days post castration animals were instrumented with indwelling femoral venous and arterial catheters to facilitate remote infusions and blood sampling. On the day of the experiment, animals were allowed to acclimate to the procedure room while residing in their home cage. Basal blood samples were drawn from all animals. Following basal sampling, either vehicle (10% DMSO, 10% cremophor/saline), Antide (1.0 μg) or compound 11 (10 mg/kg) was administered intravenously. Blood samples were drawn 10, 60, 90, 120, 180, 240 minutes after injections. Blood was centrifuged, serum collected and stored in −70° freezer until assayed. Serum samples were analyzed using DSL-4600 ACTIVE LH coated-tube immunoradiometric assay kit from Diagnostic Systems Laboratories, Inc.
Surgical removal of the gonads removes circulating testosterone and eliminates the negative feedback of testosterone on the hypothalamus. […] This model seems suitable for evaluating small molecule GnRH antagonists.
Male Sprague-Dawley ([…]) rats were castrated via the scrotal approach under halothane anesthesia. Animals were allowed 14 days post operative recovery prior to study. Thirteen days following castration, animals were anesthetized with halothane and instrumented with indwelling jugular vein cannula. Details of the cannulation procedure have been described previously {Harms and Ojeda, 1974)}. On study day, animals were allowed to acclimate to the procedure room while residing in their home cage. Basal blood samples were drawn from all animals. Immediately following basal sampling, vehicle or test compounds were administered by various routes. The routes of administration employed were intravenous (iv), intramuscular (im), intraperitoneal (ip), subcutaneous (sc) and oral (po). Blood samples were drawn into heparin containing tubes at multiple time points post treatment. Blood was centrifuged immediately, plasma collected and stored in −20° freezer until assayed. Plasma samples were analyzed using DSL-4600 ACTIVE LH coated-tube immunoradiometric assay kit from Diagnostic Systems Laboratories, Inc.
Formulation #1 (denoted with superscript 1): 10% DMSO, 10% Cremophor EL and 80% physiological saline.
Formulation #2 (denoted with superscript 2): 10% Cremophor EL and 90% physiological saline.

[4] = Metabolism rate, pmol/min/mg at 1 μM, monkey; type: in vitro ADME; settings: 1 μM compound
[5] = target: 5-HT2a (Homo sapiens, UniProt P28223); assay: Selectivity: 5-HT2a
[6] = target: GLP-1 (Homo sapiens, UniProt P43220); assay: Selectivity: GLP-1
[7] = rat, readout (PI or pH) not stated

Chain of 5-HT2a (P28223 whole entry, species assumed): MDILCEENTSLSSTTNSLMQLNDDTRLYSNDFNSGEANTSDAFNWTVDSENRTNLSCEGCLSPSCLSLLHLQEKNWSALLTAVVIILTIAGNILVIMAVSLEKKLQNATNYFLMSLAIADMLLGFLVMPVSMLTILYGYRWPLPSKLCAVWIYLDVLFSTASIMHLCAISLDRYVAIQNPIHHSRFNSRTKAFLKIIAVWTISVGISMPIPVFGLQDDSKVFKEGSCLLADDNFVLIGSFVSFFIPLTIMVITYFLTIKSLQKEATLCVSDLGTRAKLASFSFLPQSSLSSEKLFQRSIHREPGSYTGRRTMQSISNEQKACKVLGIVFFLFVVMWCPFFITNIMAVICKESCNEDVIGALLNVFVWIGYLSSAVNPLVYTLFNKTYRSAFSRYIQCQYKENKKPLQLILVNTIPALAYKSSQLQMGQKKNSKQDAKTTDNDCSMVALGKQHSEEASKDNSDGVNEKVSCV
Chain of GLP-1 (P43220 24-463): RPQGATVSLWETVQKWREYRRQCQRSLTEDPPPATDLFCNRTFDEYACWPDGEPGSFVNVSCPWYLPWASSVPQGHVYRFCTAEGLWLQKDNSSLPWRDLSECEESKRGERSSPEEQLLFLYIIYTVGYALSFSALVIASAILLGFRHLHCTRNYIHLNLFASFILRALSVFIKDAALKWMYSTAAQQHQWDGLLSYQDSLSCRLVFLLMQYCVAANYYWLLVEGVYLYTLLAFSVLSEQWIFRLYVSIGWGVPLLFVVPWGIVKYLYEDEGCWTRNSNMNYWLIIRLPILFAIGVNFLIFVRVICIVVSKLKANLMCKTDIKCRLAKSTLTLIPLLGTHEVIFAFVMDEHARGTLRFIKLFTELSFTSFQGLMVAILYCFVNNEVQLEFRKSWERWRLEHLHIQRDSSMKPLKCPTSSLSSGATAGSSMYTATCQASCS

COc1cc(OC)c(NC(=O)c2ccc(Cc3cc(C(C)(C)C)ccc3C)o2)c(OC)c1 [Compound 200]
Kb [1, 7]: 0.9 nM
Rat male pmol/min/mg 1 μM [2]: 595 pmol/min/mg

Cc1cc2c(cc1Cc1ccc(C(=O)NCc3cccc(CNc4ccnc(NC[C@@H]5CCCO5)n4)c3)o1)C(C)(C)CCC2(C)C [Compound 136]
% Max LH Suppression ([3]; 5.0 mg/kg iv): 48%
time of % Max LH Suppression ([3]; 5.0 mg/kg iv): 1 h
≧50% Suppression Duration ([3]; 5.0 mg/kg iv): 1.0 h
% Max LH Suppression ([3]; 10 mg/kg iv): 74%
time of % Max LH Suppression ([3]; 10 mg/kg iv): 2 h
≧50% Suppression Duration ([3]; 10 mg/kg iv): 6 h
% Max LH Suppression ([3]; 20 mg/kg iv): 98%
time of % Max LH Suppression ([3]; 20 mg/kg iv): 4 h
≧50% Suppression Duration ([3]; 20 mg/kg iv): ≧6 hr
Range of Plasma Conc. ([3]; 20 mg/kg po): 0.29 µM
Range of Plasma Conc. ([3]; 40 mg/kg po): 0.72 µM
effect on GnRH dose-response curves, extracellular acidification rate ([1]; GGH3 cells, one experiment): rightward shift in the dose-response curves to GnRH without decreasing the maximum response to GnRH
Kb ([1]; rat, pH (microphysiometry)): 8 nM
Rat male pmol/min/mg 1 μM [2]: 4437 pmol/min/mg
Monkey pmol/min/mg 1 μM [4]: 5959 pmol/min/mg

Cc1cc2c(cc1Cc1ccc(C(=O)NC[C@H]3CC[C@H](CNC(=N)N)CC3)o1)C(C)(C)CCC2(C)C [Compound 10]
Ki [5]: 1200 nM

Cc1cc2c(cc1Cc1ccc(C(=O)NCC3CCCC(CNc4nccc(NCC5CCCO5)n4)C3)o1)C(C)(C)CCC2(C)C (stereo not shown) [Compound 11]
IC50 [6]: > 10000 nM

Cc1cc2c(cc1Cc1ccc(C(=O)NCc3cccc(CNc4nccc(NCC5CCCO5)n4)c3)o1)C(C)(C)CCC2(C)C (stereo not shown) [Compound 70]
GnRH functional (rat) [1, 7]: Antag- onist (rat)
Kb [1, 7]: 8 nM
Rat male pmol/min/mg 1 μM [2]: 2393 pmol/min/mg

Cc1cc2c(cc1Cc1ccc(C(=O)NC[C@H]3CC[C@H](C(=O)O)CC3)o1)C(C)(C)CCC2(C)C [Compound 12]
Ki [5]: > 4000 nM

COc1cccc(OC)c1NC(=O)c1ccc(Cc2cc3c(cc2C)C(C)(C)CCC3(C)C)o1 [Compound 20]
Ki [5]: 2350 nM
IC50 [6]: > 10000 nM
Ki [6]: > 10000 nM
Kb [1, 7]: 9 nM

Cc1cnc(CNC(=O)c2ccc(Cc3cc4c(cc3C)C(C)(C)CCC4(C)C)o2)cn1 [Compound 13]
IC50 [6]: > 10000 nM

COc1cc(OC)c(NC(=O)c2ccc(Cc3cc4c(cc3C)CCCC4(C)C)o2)c(OC)c1 [Compound 183]
% Max LH Suppression ([3]; 10 mg/kg im): 58%
time of % Max LH Suppression ([3]; 10 mg/kg im): 2 h
% Max LH Suppression ([3]; 10 mg/kg iv): 92%
time of % Max LH Suppression ([3]; 10 mg/kg iv): 1 h
≧50% Suppression Duration ([3]; 10 mg/kg iv): 8 h
% Max LH Suppression ([3]; 50 mg/kg po): 60%
time of % Max LH Suppression ([3]; 50 mg/kg po): 2 h
≧50% Suppression Duration ([3]; 50 mg/kg po): 8 h
Kb [1, 7]: 11 nM
Rat male pmol/min/mg 1 μM [2]: 1246 pmol/min/mg

CC(=O)N[C@H](Cc1ccc2ccccc2c1)C(=O)N[C@H](Cc1ccc(Cl)cc1)C(=O)N[C@H](Cc1cccnc1)C(=O)N[C@@H](CO)C(=O)N[C@@H](CCCCNC(=O)c1cccnc1)C(=O)N[C@H](CCCCNC(=O)c1cccnc1)C(=O)N[C@@H](CC(C)C)C(=O)N[C@@H](CCCCNC(C)C)C(=O)N1CCC[C@H]1C(=O)N[C@H](C)C(N)=O [Antide, reference compound] (Ac-[d2Nal][dPhe(4-Cl)][d3Pal]SK(Nicotinoyl)[dK](Nicotinoyl)L[Lys(iPr)]P[dA]-NH2)
LH in CX rats ([3]; Antide 2.0 and 20 ug, sc): reduces LH levels; also recorded: suppresses LH
LH in castrated rat model ([3]; intravenous, Antide 1.0 μg, compound 11 10 mg/kg): reduces LH

Cc1cc2c(cc1Cc1ccc(C(=O)NCc3nc4ccccc4[nH]3)o1)C(C)(C)CCC2(C)C [Compound 48]
% Max LH Suppression ([3]; 10 mg/kg iv): 75%
time of % Max LH Suppression ([3]; 10 mg/kg iv): 0.5 h
≧50% Suppression Duration ([3]; 10 mg/kg iv): <1 h
% Max LH Suppression ([3]; 20 mg/kg iv): 51%
time of % Max LH Suppression ([3]; 20 mg/kg iv): 1 h
≧50% Suppression Duration ([3]; 20 mg/kg iv): 1 h
IC50 [6]: > 10000 nM
Rat male pmol/min/mg 1 μM [2]: 2869 pmol/min/mg

COc1cc(OC)c(NC(=O)c2ccc(Cc3cc4c(cc3C)C(C)(C)CCC4(C)C)o2)c(OC)c1C#N [Compound 177]
Kb [1, 7]: 9 nM
Rat male pmol/min/mg 1 μM [2]: 2930 pmol/min/mg
Monkey pmol/min/mg 1 μM [4]: 3120 pmol/min/mg

COc1cc(OC)c(NC(=O)c2ccc(Cc3cc4c(cc3OC)C(C)(C)CCC4(C)C)o2)c(OC)c1 [Compound 169]
Ki [5]: 2710 nM
Kb [1, 7]: 17 nM
Rat male pmol/min/mg 1 μM [2]: 3320 pmol/min/mg
Monkey pmol/min/mg 1 μM [4]: 5940 pmol/min/mg
